Test results as given in patent publication US20080221213A1, “Tablets Comprising a High Load of Strontium” (OSTEOLOGIX A/S SYMBION SCIENCE PARK, priority 2005, published 2008).

Test: Single oral dose pharmacokinetic study in humans (healthy male volunteers), serum strontium by ICP-MS
Settings: by inverse regression on the dose-AUC model; 95% CI [1.073, 1.115]

## O=C([O-])CC(=O)[O-].[Sr+2] [strontium malonate]
  Bioequivalent dose to 2.0 g strontium ranelate (Protelos) in terms of AUC5 week: 1.09 g
